Among the data in patent publication US7687643B2, “Process for preparing 3,3-dimethylindolines” (Amgen Inc., priority 2001, dated 2010) are IC50 values, retold here.

Where only a bound is given, the exact number is not on record here.

The experiment deals with Human Umbilical Vein Endothelial cells (VEGF-stimulated). The experiment can be described thus: HUVEC proliferation assay, VEGF-stimulated. The conditions noted are these: VEGF 50 ng/mL, 72 h, CyQuant, read-out: inhibited VEGF-stimulated HUVEC proliferation at a level. In kind it is cell-based. The procedure: Human Umbilical Vein Endothelial cells are purchased from Clonetics, Inc., as cryopreserved cells harvested from a pool of donors. These cells, at passage 1, are thawed and expanded in EBM-2 complete medium, until passage 2 or 3. The cells are trypsinized, washed in DMEM+10% FBS+antibiotics, and spun at 1000 rpm for 10 min. Prior to centrifugation of the cells, a small amount is collected for a cell count. After centrifugation, the medium is discarded, and the cells are resuspended in the appropriate volume of DMEM+10% FBS+antibiotics to achieve a concentration of 3×10^5 cells/mL. Another cell count is performed to confirm the cell concentration. The cells are diluted to 3×10^4 cells/mL in DMEM+10% FBS+antibiotics, and 100 μL of cells are added to a 96-well plate. The cells are incubated at 37° C. for 22 h.
Prior to the completion of the incubation period, compound dilutions are prepared. Five-point, five-fold serial dilutions are prepared in DMSO, at concentrations 400-fold greater than the final concentrations desired. 2.5 μL of each compound dilution are diluted further in a total of 1 mL DMEM+10% FBS+antibiotics (400× dilution). Medium containing 0.25% DMSO is also prepared for the 0 μM compound sample. At the 22-hour timepoint, the medium is removed from the cells, and 100 μL of each compound dilution is added. The cells are incubated at 37° C. for 2-3 h.
During the compound pre-incubation period, the growth factors are diluted to the appropriate concentrations. Solutions of DMEM+10% FBS+antibiotics, containing either VEGF or bFGF at the following concentrations: 50, 10, 2, 0.4, 0.08, and 0 ng/mL are prepared. For the compound-treated cells, solutions of VEGF at 550 ng/mL or bFGF at 220 ng/mL for 50 ng/mL or 20 ng/mL final concentrations, respectively, are prepared since 10 μL of each will be added to the cells (110 μL final volume). At the appropriate time after adding the compounds, the growth factors are added. VEGF is added to one set of plates, while bFGF is added to another set of plates. For the growth factor control curves, the media on wells B4-G6 of plates 1 and 2 are replaced with media containing VEGF or bFGF at the varying concentrations (50-0 ng/mL). The cells are incubated at 37° C. for an additional 72 h.
At the completion of the 72 h incubation period, the medium is removed, and the cells are washed twice with PBS. After the second wash with PBS, the plates are tapped gently to remove excess PBS, and the cells are placed at −70° C. for at least 30 min. The cells are thawed and analyzed using the CyQuant fluorescent dye (Molecular Probes C-7026), following the manufacturer's recommendations. The plates are read on a Victor/Wallac 1420 workstation at 485 nm/530 nm (excitation/emission). Raw data are collected and analyzed using a 4-parameter fit equation in XLFit. IC50 values are then determined.
`CC1(C)CN(S(C)(=O)=O)c2cc(NC(=O)c3cccnc3NCc3ccnc(N)c3)ccc21` [Example 1059, 2-(((2-amino-4-pyridinyl)methyl)amino)-N-(3,3-dimethyl-1-(methylsulfonyl)-2,3-dihydro-1H-indol-6-yl)-3-pyridinecarboxamide]: the IC50 was less than 50 nM.
The result for `CC(C)c1ccc(NC(=O)c2cccnc2NCc2ccncc2)cc1` [Example 25, N-(4-Isopropylphenyl){2-[(4-pyridylmethyl)amino](3-pyridyl)}carboxamide] reads less than 50 nM; that for `CCOC(=O)N1CC2(CC2)c2ccc(NC(=O)c3cccnc3NCc3ccnc(NC)c3)cc21` [Example 1106, Ethyl [1,2-dihydro-6-({2-[(2-methylamino-pyridin-4-ylmethyl)-amino]-pyridine-3-carbonyl}-amino)-3-spiro-1′-cyclopropyl-1H-indole]-1-carbamate], less than 50 nM.
As to `CNc1cc(CNc2ncccc2C(=O)Nc2ccc3c(c2)N(S(C)(=O)=O)CC3(C)C)ccn1` [Example 1058, N-(3,3-dimethyl-1-(methylsulfonyl)-2,3-dihydro-1H-indol-6-yl)-2-(((2-(methylamino)-4-pyridinyl)methyl)amino)-3-pyridinecarboxamide], the IC50 is less than 50 nM.
Under `CC(=O)N1CC(C)(C)c2ccc(NC(=O)c3cccnc3Nc3ccc4c(c3)OCCO4)cc21` [Example 991, N-(1-Acetyl-3,3-dimethyl-2,3-dihydro-1H-indol-6-yl)-2-(2,3-dihydro-benzo[1,4]dioxin-6-ylamino)-nicotinamide] stands less than 50 nM; under `O=C(Nc1cc(NC(=O)c2cccnc2NCc2ccncc2)cc(C(F)(F)F)c1)O[C@H]1CCOC1` [Example 1088, (3S)-tetrahydro-3-furanyl 3-(((2-((4-pyridinylmethyl)amino)-3-pyridinyl)carbonyl)amino)-5-(trifluoromethyl)phenylcarbamate], less than 50 nM; under `CC1(C)COc2cc(NC(=O)c3cccnc3NCc3ccncc3)ccc21` [Example 973, N-(3,3-Dimethyl-2,3-dihydro-benzofuran-6-yl)-2-[(pyridin-4-ylmethyl)-amino]-nicotinamide], less than 50 nM.
Take `CC(C)c1ccc(NC(=O)c2cccnc2NCc2ccnc3ccccc23)cc1` [Example 167, N-[4-(Isopropyl)phenyl]{2-[(4-quinolylmethyl)amino](3-pyridyl)}carboxamide]: the IC50 is less than 50 nM.
Under `CNc1nccc(CNc2ncccc2C(=O)Nc2cc(OC[C@@H]3CCCN3C)cc(C(F)(F)F)c2)n1` [Example 1144, 2-[(2-Methylamino-pyrimidin-4-ylmethyl)-amino]-N-[3-(1-methyl-pyrrolidin-2-ylmethoxy)-5-trifluoromethyl-phenyl]-nicotinamide] stands less than 50 nM; under `CC(CNc1cc(CNc2ncccc2C(=O)Nc2ccc3c(c2)NCC3(C)C)ccn1)N1CCOCC1` (stereo not shown) [Example 1008, N-(3,3-dimethyl-2,3-dihydro-1H-indol-6-yl)-2-{[2-(2-morpholin-4-yl-propylamino)-pyridin-4-ylmethyl]-amino}-nicotinamide], less than 50 nM.
Consider `CNc1cc(CNc2ncccc2C(=O)Nc2cc(O[C@@H]3CCOC3)cc(C(F)(F)F)c2)ccn1` [Example 1083, 2-(((2-(methylamino)-4-pyridinyl)methyl)amino)-N-(3-((3R)-tetrahydro-3-furanyloxy)-5-(trifluoromethyl)phenyl)-3-pyridinecarboxamide], for which the IC50 is less than 50 nM.
Under `CC1(C)CCNc2cc(NC(=O)c3cccnc3NCc3ccnc(N4CCOCC4)c3)ccc21` [Example 1154, N-(4,4-Dimethyl-1,2,3,4-tetrahydro-quinolin-7-yl)-2-[(2-morpholin-4-yl-pyridin-4-ylmethyl)-amino]-nicotinamide] stands less than 50 nM; under `COc1cc(CNc2ncccc2C(=O)Nc2ccc3c(c2)NCCC3(C)C)ccn1` [Example 1113, N-(4,4-Dimethyl-1,2,3,4-tetrahydro-quinolin-7-yl)-2-[(2-methoxy-pyridin-4-ylmethyl)-amino]-nicotinamide], less than 50 nM.
